# From ChEMBL document CHEMBL1772964, “Structural requirements of flavonoids for the adipogenesis of 3T3-L1 cells” (Bioorg Med Chem, 2011)
# Tests used:
# 3T3-L1 [1] = experiment: Induction of adipogenesis in mouse 3T3L1 cells assessed as increase in triglyceride level at 30 uM on day 8 relative to control; format: functional
# 3T3-L1 [2] = experiment: Induction of adipogenesis in mouse 3T3L1 cells assessed as increase in triglyceride level at 3 uM on day 8 relative to control; format: functional
# 3T3-L1 [3] = experiment: Induction of adipogenesis in mouse 3T3L1 cells assessed as increase in triglyceride level at 10 uM on day 8 relative to control; format: functional
# 3T3-L1 [4] = experiment: Induction of adipogenesis in mouse 3T3L1 cells assessed as increase in triglyceride level at 1 uM on day 8 relative to control; format: functional
# 3T3-L1 [5] = experiment: Induction of adipogenesis in mouse 3T3L1 cells assessed as increase in triglyceride level at 0.3 uM on day 8 relative to control; format: functional
# 3T3-L1 [6] = experiment: Cytotoxicity in mouse 3T3L1 cells assessed as reduction in triglyceride accumulation at 30 uM; format: cell-based; conditions: 3t3-l1, 30 µM
# 3T3-L1 [7] = experiment: Induction of adiponectin protein secretion in mouse 3T3L1 cells at 3 uM on day 8 by ELISA relative to control; format: functional
SMILES,Activity (3T3-L1 [1]) [%],Activity (3T3-L1 [2]) [%],Activity (3T3-L1 [3]) [%],Activity (3T3-L1 [4]) [%],Activity (3T3-L1 [5]) [%],Activity (3T3-L1 [6]),Activity (3T3-L1 [7]) [%]
COc1cc(O)c2c(=O)c(OC)c(-c3ccccc3)oc2c1,17.7,13.7,14.2,13.3,–,–,–
O=c1cc(-c2ccc(O)c(O)c2)oc2ccccc12,-21,13.8,9.8,5.9,–,–,–
O=c1cc(-c2ccc(O)cc2)oc2cc(O)ccc12,-5.7,-3.9,-1.5,-8.1,–,–,–
O=c1cc(-c2ccc(O)c(O)c2)oc2cc(O)ccc12,-1.7,9,14.8,4.5,–,–,–
COc1ccc(-c2cc(=O)c3c(O)cc(OC)cc3o2)cc1,6.8,12.2,5.8,19,7.7,–,–
COc1ccc2c(c1)OC(c1ccc(O)cc1)CC2=O (stereo not given),13.5,2.2,2.6,-1.2,–,–,–
COc1cc(OC)c2c(=O)c(OC)c(-c3ccccc3)oc2c1,6.6,10.4,13.2,9,–,–,–
"COc1ccc(-c2cc(=O)c3ccc(OC)cc3o2)cc1 [4,7-DIMETHOXYFLAVONE]",6.3,3.4,4.3,1.2,–,–,–
O=c1cc(-c2ccccc2)oc2cc(O)ccc12 [7-HYDROXYFLAVONE],5.3,13.7,17.1,12.2,–,–,–
Oc1cc(O)c2c(c1)O[C@H](c1ccc(O)c(O)c1)[C@H](O)C2 [(-)-EPICATECHIN],-0.6,6.1,-7.2,3.7,–,–,–
O=c1cc(-c2ccc(O)cc2)oc2cc(O)cc(O)c12 [APIGENIN],-7.7,4.9,7,4.5,–,–,–
O=c1c(O[C@@H]2O[C@H](CO)[C@@H](O)[C@H](O)[C@H]2O)c(-c2ccc(O)cc2)oc2cc(O)cc(O)c12 [ASTRAGALIN],10.2,4.7,8.8,2.1,–,–,–
COc1cc(O)c2c(=O)c(OC)c(-c3ccc(OC)c(O)c3)oc2c1 [AYANIN],0.4,16.3,18.5,2.6,–,–,–
O=c1cc(-c2ccccc2)oc2cc(O)c(O)c(O)c12 [BAICALEIN],-37.2,-7.7,-21.8,-5.2,–,Toxic,–
COc1ccc(-c2coc3cc(O)cc(O)c3c2=O)cc1 [BIOCHANIN],-16.5,6.1,1.2,2.6,–,–,–
O=C(/C=C/c1ccc(O)c(O)c1)c1ccc(O)cc1O [BUTEIN],-80.8,17.5,-7.3,14.8,–,Toxic,–
COc1cc(OC)c2c(=O)cc(-c3ccccc3)oc2c1 [CHRYSIN DIMETHYL ETHER],-88.1,3.4,6.3,7.5,–,Toxic,–
Oc1cc(O)c2c(c1)O[C@H](c1ccc(O)c(O)c1)[C@@H](O)C2 [CIANIDANOL],11.9,6.4,7.9,-0.5,–,–,–
O=c1c(-c2ccc(O)cc2)coc2cc(O)ccc12 [DAIDZEIN],13.4,6.5,8.5,2,–,–,–
Oc1cc(O)c2c(c1)O[C@H](c1cc(O)c(O)c(O)c1)[C@H](O)C2 [EPIGALLOCATECHIN],-19.5,-3.8,-10.2,-9.5,–,–,–
O=C1C[C@@H](c2ccc(O)c(O)c2)Oc2cc(O)cc(O)c21 [ERIODICTYOL],-10.3,-5,-10.3,1.6,–,–,–

SMILES,Activity (3T3-L1 [1]) [%],Activity (3T3-L1 [2]) [%],Activity (3T3-L1 [3]) [%],Activity (3T3-L1 [4]) [%],Activity (3T3-L1 [5]) [%],Activity (3T3-L1 [6]),Activity (3T3-L1 [7]) [%]
O=c1c(O)c(-c2ccc(O)c(O)c2)oc2cc(O)ccc12 [FISETIN],-2.7,-2.4,-8.8,4.1,–,–,–
O=C1CC(c2ccccc2)Oc2ccccc21 (stereo not given) [FLAVANONE],1,5.1,2.5,-1.9,–,–,–
O=c1cc(-c2ccccc2)oc2ccccc12 [FLAVONE],-10.9,-6.8,-5.2,-2.6,–,–,–
O=c1c(O)c(-c2ccccc2)oc2ccccc12 [FLAVONOL],-31.6,-10,-17.6,-12.6,–,Toxic,–
O=c1c(-c2ccc(O)cc2)coc2cc(O)cc(O)c12 [GENISTEIN],-19.2,-4.3,-17.6,-4.3,–,–,–
O=c1c(O)c(-c2ccc(O)c(O)c2)oc2c(O)c(O)cc(O)c12 [GOSSYPETIN],-9.5,-2.9,-6.7,17.5,–,–,–
O=C(/C=C/c1ccc(O)cc1)c1ccc(O)cc1O [ISOLIQUIRITIGENIN],-33.7,4,-0.7,2.7,–,–,–
O=c1c(O[C@@H]2O[C@H](CO)[C@@H](O)[C@H](O)[C@H]2O)c(-c2ccc(O)c(O)c2)oc2cc(O)cc(O)c12 [ISOQUERCETIN],-2.4,0.1,-0.2,-2.2,–,–,–
O=c1cc(-c2ccc(O)c(O)c2)oc2cc(O)cc(O)c12 [LUTEOLIN],-41.3,-6.4,-14.2,3.9,–,Toxic,–
O=c1c(O)c(-c2cc(O)c(O)c(O)c2)oc2cc(O)cc(O)c12 [MYRICETIN],5.6,2.7,-0.7,4.3,–,–,–
COc1ccc(-c2cc(=O)c3c(OC)c(OC)c(OC)c(OC)c3o2)cc1OC [NOBILETIN],-6.7,12.6,10.7,15.3,14.1,–,–
COc1cc(O)c2c(=O)c(O)c(-c3ccc(OC)c(O)c3)oc2c1 [OMBUINE],24.7,5.9,4.6,-2.1,–,–,–
O=c1c(O)c(-c2ccc(O)c(O)c2)oc2cc(O)cc(O)c12 [QUERCETIN],3.9,5.8,3,7,–,–,–
COc1cc(O)c2c(=O)c(OC)c(-c3ccc(OC)c(OC)c3)oc2c1 [RETUSIN],3.8,11.2,21,3.8,–,–,–
COc1cc(O)c2c(=O)c(O)c(-c3ccc(O)c(O)c3)oc2c1 [RHAMNETIN],-21.4,1.9,2.4,19,15.5,–,–
COc1cc(O)c2c(=O)cc(-c3ccccc3)oc2c1 [TECHTOCHRYSIN],17.5,10.7,10.4,7.4,–,–,–
COc1cc(OC)c2c(=O)cc(-c3ccc(OC)c(OC)c3)oc2c1 [TETRAMETHYLLUTEOLIN],-15.3,3.1,7.4,2.6,–,–,–
COc1ccc(-c2cc(=O)c3c(OC)cc(OC)cc3o2)cc1 [TRIMETHYLAPIGENIN],-83,14.1,-17.2,16.7,5.6,Toxic,–
Cc1c(C)c2c(c(C)c1O)CCC(C)(COc1ccc(CC3SC(=O)NC3=O)cc1)O2 (stereo not given) [TROGLITAZONE],–,34.6,28.1,35.8,31.9,–,166.4
COc1c(O)cc(O)c2c(=O)cc(-c3ccccc3)oc12 [WOGONIN],16.6,9.6,19.2,7.8,–,–,–
